Where two headings read alike, the source gives them in different places.
Tests used:
[1] = In vitro metabolic stability in human plasma; type: in vitro ADME; settings: human, plasma, 37° C., 10 μM compound, read-out: Human plasma T1/2
Protocol: (§1) This example detects the metabolic stability of the compounds of the present disclosure in human (rat) plasma and intestinal S9 in vitro. In a human (rat) plasma reaction system, 990 μl of human (rat) plasma was taken and incubated at 37° C. for 5 minutes, and 10 μl of the compound mother liquor was used to initiate the reaction. In the human (rat) intestinal S9 stability experiment, in the order shown in Table 2 below, the samples were added and incubated in a 37° C. water bath to initiate the reaction, each sample performed in triplicates. Respectively, at 1 minute, 2 minutes, 5 minutes, 15 minutes, 30 minutes after the reaction began, 100 μL of each was taken and added to a centrifuge tube containing 400 μL of 0° C. precooled internal standard working solution. The reaction was terminated, vortexed and mixed for 1 minute, centrifuged at 10000×g for 10 minutes in a 4° C. precooled high-speed centrifuge, and the supernatant was detected with HPLC. The test results were used to calculate metabolic half-life using WinNonlin (version 6.2 Pharsight, Mountain View, Calif.) with a non-compartmental model.
(§2) Compound stock solution concentration: 1 mM
(§3) Reaction matrix: human (rat) plasma, intestinal S9 purchased from Research Institute for Liver Diseases (Shanghai) Co., Ltd.

[2] = In vitro metabolic stability in human intestine S9; type: in vitro ADME; settings: human, 37° C., 10 μM compound, 1 mg/mL S9, NADPH regeneration system, read-out: Human intestine S9 T1/2
Protocol: as §1, §2, §3

[3] = In vitro metabolic stability in rat plasma; type: in vitro ADME; settings: rat, plasma, 37° C., 10 μM compound, read-out: Rat plasma T1/2
Protocol: as §1, §2, §3

[4] = In vitro metabolic stability in rat intestine S9; type: in vitro ADME; settings: rat, 37° C., 10 μM compound, 1 mg/mL S9, NADPH regeneration system, read-out: Rat intestine S9 T1/2
Protocol: as §1, §2, §3

[5] = Solid stability test (stability chamber, HPLC total impurity); type: physicochemical
[6] = test system: Candida albicans ATCC10231; assay: Systemic fungal infection in mice, intragastric administration; type: in vivo, ICR mice; settings: Candida albicans, ATCC10231, po
Protocol: (§4) ICR mice, weighing 18-22 g, male, provided by Hubei Experimental Animal Center.
Prior to the experiment, a small amount of Candida albicans was picked from an SDA medium kept at 4° C. with an inoculation loop and inoculated into 1 ml YPD culture medium, cultured at 30° C. with 200 rpm shaking and activated for 16 hours, so that the fungus was in the late stage of exponential growth. Counted with a hemocytometer and the fungal solution concentration was adjusted to 1×10^3 to 5×10^3 CFU/ml with RPMI1640 medium. Monoclonal Candida albicans on SDA plate was picked up, inoculated into 1 ml YPD (Yeast Extract Peptone Dextrose Medium, the same below) culture medium, cultured at 35° C., 200 rpm for 16 hours until late exponential growth phase. Candida albicans was inoculated into fresh medium for culturing for 6 hours at 1%, centrifuged at 1000×g for 5 minutes, washed with physiological saline three times until the supernatant was colorless, counted with a hemocytometer, and the cell concentration was adjusted to 5×10^6 cells/ml. A tail vein injection of 0.1 ml/10 g caused a systemic fungal infection in mice. […] A total of 7 days of observations were performed. All dead mice were burned with ethanol.

[7] = Determination of solubility in deionized water (HPLC, external standard); settings: 25 °C, water, thermodynamic from solid
[8] = test system: Candida albicans ATCC10231; assay: Systemic fungal infection in mice, intravenous administration; type: in vivo, ICR mice; settings: 20 mg/kg tail vein once daily for 5 days
Protocol: as §4
Prior to the experiment, a small amount of Candida albicans was picked from an SDA (sacharomyces agar, the same below) medium kept at 4° C. with an inoculation loop and inoculated into 1 ml YPD (Yeast Extract Peptone Dextrose Medium) culture medium, cultured at 30° C. with 200 rpm shaking and activated for 16 hours, so that the fungus was in the late stage of exponential growth. Counted with a hemocytometer and the fungal solution concentration was adjusted to 1×10^3-5×10^3 CFU/ml with RPMI1640 medium (Roswell Park Memorial Institute 1640, the same below). Monoclonal Candida albicans on SDA plate was picked up, inoculated into 1 ml YPD (Yeast Extract Peptone Dextrose Medium, the same below) culture medium, cultured at 35° C., 200 rpm for 16 hours until late exponential growth phase. Candida albicans was inoculated into fresh medium for culturing for 6 hours at 1%, centrifuged at 1000×g for 5 minutes, washed with physiological saline three times until the supernatant was colorless, counted with a hemocytometer, and the cell concentration was adjusted to 5×10^6 cells/ml. A tail vein injection of 0.1 ml/10 g caused a systemic fungal infection in mice. […] A total of 7 days of observations were performed. All dead mice were burned with ethanol.

[9] = 24 h, read-out: survival rate of mice, day 1, 20 mg/kg intragastric once daily for 5 days, day 1
[10] = 48 h, read-out: survival rate of mice, day 2, 20 mg/kg intragastric once daily for 5 days, day 2
[11] = 72 h, read-out: survival rate of mice, day 3, 20 mg/kg intragastric once daily for 5 days, day 3
[12] = 96 h, read-out: survival rate of mice, day 4, 20 mg/kg intragastric once daily for 5 days, day 4
[13] = 120 h, read-out: survival rate of mice, day 5, 20 mg/kg intragastric once daily for 5 days, day 5
[14] = 144 h, read-out: survival rate of mice, day 6, 20 mg/kg intragastric once daily for 5 days, day 6
[15] = 168 h, read-out: survival rate of mice, day 7, 20 mg/kg intragastric once daily for 5 days, day 7
[16] = 24 h, 20 mg/kg intragastric once daily for 5 days, day 1, read-out: survival rate of mice, day 1
[17] = 48 h, 20 mg/kg intragastric once daily for 5 days, day 2, read-out: survival rate of mice, day 2
[18] = 72 h, 20 mg/kg intragastric once daily for 5 days, day 3, read-out: survival rate of mice, day 3
[19] = 96 h, 20 mg/kg intragastric once daily for 5 days, day 4, read-out: survival rate of mice, day 4
[20] = 120 h, 20 mg/kg intragastric once daily for 5 days, day 5, read-out: survival rate of mice, day 5
[21] = 144 h, 20 mg/kg intragastric once daily for 5 days, day 6, read-out: survival rate of mice, day 6
[22] = 168 h, 20 mg/kg intragastric once daily for 5 days, day 7, read-out: survival rate of mice, day 7

In the case of `CC[C@@H]([C@H](C)O)n1ncn(-c2ccc(N3CCN(c4ccc(OC[C@@H]5CO[C@@](Cn6c[n+](C(C)OC(=O)N(C)c7ncccc7COC(=O)[C@@H](N)CCC(N)=O)cn6)(c6ccc(F)cc6F)C5)cc4)CC3)cc2)c1=O` (stereo partly shown) [ST0022], the half-life at 10 µM [1] is reported as 1.39 ± 0.52 min, the half-life at 10 µM ([2]; intestinal S9) is reported as 17.7 ± 4.52 min and the half-life at 10 µM [3] is reported as 1.12 ± 0.45 min. The half-life at 10 µM ([4]; intestinal S9, pH 7.4) was 19 ± 5.36 min, the “Total impurity increment in 30 days” value [5] was 0.48% and the responders at 20 mg/kg [6, 9] was 100%. For the same compound, the responders at 20 mg/kg [6, 10] was 100%, the responders at 20 mg/kg [6, 11] was 100% and the responders at 20 mg/kg [6, 12] was 90%. For the same compound, the responders at 20 mg/kg [6, 13] was 80%, the responders at 20 mg/kg [6, 14] was 80% and the responders at 20 mg/kg [6, 15] was 70%. The solubility at 30 min [7] was > 50 mg/mL.

Work on `CC[C@@H]([C@H](C)O)n1ncn(-c2ccc(N3CCN(c4ccc(OC[C@@H]5CO[C@@](Cn6c[n+](C(C)OC(=O)N(C)c7ncccc7COC(=O)[C@@H](N)CCCCN)cn6)(c6ccc(F)cc6F)C5)cc4)CC3)cc2)c1=O` (stereo partly shown) [ST0024] yielded a half-life at 10 µM [1] of 1.57 ± 0.34 min, a half-life at 10 µM ([2]; intestinal S9) of 12.2 ± 5.9 min and a half-life at 10 µM [3] of 2.51 ± 0.69 min. The half-life at 10 µM ([4]; intestinal S9, pH 7.4) was 15.6 ± 5.96 min, the “Total impurity increment in 30 days” value [5] was 0.62% and the responders at 20 mg/kg [6, 9] was 100%. For the same compound, the responders at 20 mg/kg [6, 10] was 90%, the responders at 20 mg/kg [6, 11] was 90% and the responders at 20 mg/kg [6, 12] was 80%. It also gave a responders at 20 mg/kg [6, 13] of 80%, a responders at 20 mg/kg [6, 14] of 70% and a responders at 20 mg/kg [6, 15] of 70%. For the same compound, the solubility at 30 min [7] was > 50 mg/mL.

For `CC[C@@H]([C@H](C)O)n1ncn(-c2ccc(N3CCN(c4ccc(OC[C@@H]5CO[C@@](Cn6c[n+](C(C)OC(=O)N(C)c7ncccc7COC(=O)[C@@H](N)[C@@H](C)O)cn6)(c6ccc(F)cc6F)C5)cc4)CC3)cc2)c1=O` (stereo partly shown) [ST0026], the half-life at 10 µM [1] was 1.03 ± 0.09 min, the half-life at 10 µM ([2]; intestinal S9) was 16.4 ± 7.54 min and the half-life at 10 µM [3] was 2.69 ± 1.21 min. For the same compound, the half-life at 10 µM ([4]; intestinal S9, pH 7.4) was 19 ± 5.96 min, the “Total impurity increment in 30 days” value [5] was 0.46% and the responders at 20 mg/kg [6, 9] was 100%. The responders at 20 mg/kg [6, 10] was 100%, the responders at 20 mg/kg [6, 11] was 90% and the responders at 20 mg/kg [6, 12] was 80%. For the same compound, the responders at 20 mg/kg [6, 13] was 70%, the responders at 20 mg/kg [6, 14] was 70% and the responders at 20 mg/kg [6, 15] was 70%. For the same compound, the solubility at 30 min [7] was > 50 mg/mL.

Compound `CC[C@@H]([C@H](C)O)n1ncn(-c2ccc(N3CCN(c4ccc(OC[C@@H]5CO[C@@](Cn6c[n+](C(C)OC(=O)N(C)c7ncccc7COC(=O)[C@@H](N)Cc7ccc(O)cc7)cn6)(c6ccc(F)cc6F)C5)cc4)CC3)cc2)c1=O` (stereo partly shown) [ST0027] has a half-life at 10 µM [1] of 20.4 ± 3.65 min, a half-life at 10 µM ([2]; intestinal S9) of 45.9 ± 8.12 min and a half-life at 10 µM [3] of 15.9 ± 7.85 min. The half-life at 10 µM ([4]; intestinal S9, pH 7.4) was 39.5 ± 6.69 min, the “Total impurity increment in 30 days” value [5] was 0.75% and the solubility at 30 min [7] was > 50 mg/mL.

For `CC[C@@H]([C@H](C)O)n1ncn(-c2ccc(N3CCN(c4ccc(OC[C@@H]5CO[C@@](Cn6c[n+](C(C)OC(=O)N(C)c7ncccc7COC(=O)CN(C)C)cn6)(c6ccc(F)cc6F)C5)cc4)CC3)cc2)c1=O` (stereo partly shown) [ST0045], the half-life at 10 µM [1] was 15.2 ± 3.99 min, the half-life at 10 µM ([2]; intestinal S9) was 33.2 ± 4.23 min and the half-life at 10 µM [3] was 11.9 ± 2.96 min. For the same compound, the half-life at 10 µM ([4]; intestinal S9, pH 7.4) was 26 ± 5.69 min, the “Total impurity increment in 30 days” value [5] was 1.68% and the solubility at 30 min [7] was > 50 mg/mL.

`CC[C@@H]([C@H](C)OC(=O)OC(C)OC(=O)CNC)n1ncn(-c2ccc(N3CCN(c4ccc(OC[C@@H]5CO[C@@](Cn6cncn6)(c6ccc(F)cc6F)C5)cc4)CC3)cc2)c1=O.Cl` (stereo partly shown) [ST0053] showed a half-life at 10 µM [1] of 19.9 ± 3.01 min, a half-life at 10 µM ([2]; intestinal S9) of 50.2 ± 5.15 min and a half-life at 10 µM [3] of 21.2 ± 4.52 min. For the same compound, the half-life at 10 µM ([4]; intestinal S9, pH 7.4) was 48.2 ± 6.85 min, the “Total impurity increment in 30 days” value ([5]; solid, packaged, 25° C.±2° C., relative humidity 60%±2%) was 0.85% and the responders at 20 mg/kg [6, 16] was 90%. It also gave a responders at 20 mg/kg [6, 17] of 80%, a responders at 20 mg/kg [6, 18] of 70% and a responders at 20 mg/kg [6, 19] of 60%. It also gave a responders at 20 mg/kg [6, 20] of 60%, a responders at 20 mg/kg [6, 21] of 60% and a responders at 20 mg/kg [6, 22] of 60%.

`CC[C@@H](C(C)OC(=O)OC(C)OC(=O)CCCOS(=O)(=O)[O-])n1ncn(-c2ccc(N3CCN(c4ccc(OC[C@@H]5CO[C@@](Cn6cncn6)(c6ccc(F)cc6F)C5)cc4)CC3)cc2)c1=O.[Na+]` (stereo partly shown) [ST0077] gave a half-life at 10 µM [1] of 1.97 ± 1.29 min, a half-life at 10 µM [2] of 21.3 ± 5.09 min and a half-life at 10 µM [3] of 1.55 ± 0.56 min. For the same compound, the half-life at 10 µM ([4]; pH 7.4) was 19.3 ± 5.65 min, the responders at 20 mg/kg ([8]; 24 h, day 1, read-out: survival rate of mice, day 1) was 100% and the responders at 20 mg/kg ([8]; 48 h, day 2, read-out: survival rate of mice, day 2) was 100%. It also gave a responders at 20 mg/kg ([8]; 72 h, day 3, read-out: survival rate of mice, day 3) of 100%, a responders at 20 mg/kg ([8]; 96 h, day 4, read-out: survival rate of mice, day 4) of 100% and a responders at 20 mg/kg ([8]; 120 h, day 5, read-out: survival rate of mice, day 5) of 90%. It also gave a responders at 20 mg/kg ([8]; 144 h, day 6, read-out: survival rate of mice, day 6) of 90%, a responders at 20 mg/kg ([8]; 168 h, day 7, read-out: survival rate of mice, day 7) of 90% and a responders at 20 mg/kg [6, 16] of 100%. It also gave a responders at 20 mg/kg [6, 17] of 90%, a responders at 20 mg/kg [6, 18] of 80% and a responders at 20 mg/kg [6, 19] of 80%. The responders at 20 mg/kg [6, 20] was 80%, the responders at 20 mg/kg [6, 21] was 70% and the responders at 20 mg/kg [6, 22] was 70%. For the same compound, the solubility at 30 min [7] was > 50 mg/mL.

Source: patent publication US10517867B2, “Posaconazole derivative, pharmaceutical composition and use thereof” (priority 2016, dated 2019)
